Data as given in patent US10407381B2 (THE BOARD OF TRUSTEES OF THE UNIVERSITY OF ILLINOIS, priority 2015, dated 2019).
Where two headings read alike, the source gives them in different places.

Key:
[1] = biological target: 5-HT2B (Homo sapiens, UniProt P41595); test: Calcium flux (FLIPR) assay, human 5-HT2B stably expressed in HEK-293 (Flp-In-293) cells; details: human 5-HT2B in HEK-293 cells; for EC50: EC50, nM 5-HT2B, NA = no activity at 10 μM; for Emax, % 5-HT 5-HT2B: normalized to 5-HT
[2] = biological target: T1, human 5-HT2C-INI (Homo sapiens, UniProt P28335); test: Calcium flux (FLIPR) assay, human 5-HT2C-INI stably expressed in HEK-293 (Flp-In-293) cells; details: human 5-HT2C-INI in HEK-293 cells, FLIPR; for EC50: NA = no activity at 10 μM; for Emax, % 5-HT 5-HT2C: normalized to 5-HT
T1 sequence (P28335 33-458): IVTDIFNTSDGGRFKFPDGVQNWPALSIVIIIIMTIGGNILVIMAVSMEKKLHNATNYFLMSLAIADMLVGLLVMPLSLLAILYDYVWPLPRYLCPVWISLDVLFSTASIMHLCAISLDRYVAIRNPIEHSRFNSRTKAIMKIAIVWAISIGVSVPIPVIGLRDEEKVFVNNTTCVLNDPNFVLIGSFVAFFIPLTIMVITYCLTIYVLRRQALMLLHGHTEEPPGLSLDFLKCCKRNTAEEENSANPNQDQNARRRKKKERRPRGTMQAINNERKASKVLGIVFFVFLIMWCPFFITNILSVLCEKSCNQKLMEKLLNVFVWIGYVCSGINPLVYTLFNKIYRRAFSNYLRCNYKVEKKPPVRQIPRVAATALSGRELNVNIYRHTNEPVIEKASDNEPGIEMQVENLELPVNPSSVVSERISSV

Chain of 5-HT2B (P41595 whole entry): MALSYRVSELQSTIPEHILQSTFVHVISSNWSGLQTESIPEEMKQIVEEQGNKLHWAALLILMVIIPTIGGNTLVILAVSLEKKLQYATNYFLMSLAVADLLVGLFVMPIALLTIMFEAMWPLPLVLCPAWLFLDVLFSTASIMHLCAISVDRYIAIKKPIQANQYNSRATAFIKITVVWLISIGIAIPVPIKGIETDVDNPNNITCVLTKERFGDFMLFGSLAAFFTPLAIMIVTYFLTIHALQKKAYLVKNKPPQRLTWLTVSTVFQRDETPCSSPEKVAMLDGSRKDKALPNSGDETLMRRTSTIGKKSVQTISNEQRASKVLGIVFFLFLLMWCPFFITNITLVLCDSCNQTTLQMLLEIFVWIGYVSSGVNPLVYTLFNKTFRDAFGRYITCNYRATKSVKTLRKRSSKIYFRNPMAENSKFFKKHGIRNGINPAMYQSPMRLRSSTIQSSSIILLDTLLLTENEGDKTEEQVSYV

Compound	EC50 [1]	Emax, % 5-HT 5-HT2B [1]	EC50 ([2]; EC50, nM 5-HT2C)	Emax, % 5-HT 5-HT2C [2]	EC50 ([2]; read-out: EC50, nM 5-HT2C)
NCC1CC1c1cc(Cl)c(F)cc1OCCF (single isomer, unassigned; (+)) [(+)-Example 4, (+)-(2-(5-Chloro-4-fluoro-2-(2-fluoroethoxy)phenyl)cyclopropyl)methanamine]	506 nM	(39%) % 5-HT	24 nM	(87%) % 5-HT	–
C=CCOc1cc(F)c(Cl)cc1C1CC1CN (single isomer, unassigned; (+)) [(+)-Example 5, (+)-(2-(2-(Allyloxy)-5-chloro-4-fluorophenyl)cyclopropyl)methanamine]	1000 nM	(44%) % 5-HT	42 nM	(87%) % 5-HT	–
CCCOc1ccc(Cl)cc1C1CC1CN (single isomer, unassigned; (+)) [(+)-Example 12, (+)-(2-(5-Chloro-2-propoxyphenyl)cyclopropyl)methanamine]	3440 nM	(25%) % 5-HT	103 nM	(72%) % 5-HT	–
COCCOc1ccc(Cl)cc1C1CC1CN (single isomer, unassigned; (+)) [(+)-Example 17, (+)-(2-(5-Chloro-2-(2-methoxyethoxy)phenyl)cyclopropyl)methanamine]	–	–	183 nM	(8%) % 5-HT	–
CSCCOc1ccc(Cl)cc1C1CC1CN (single isomer, unassigned; (+)) [(+)-Example 18, (+)-(2-(5-Chloro-2-(2-(methylthio)ethoxy)phenyl)cyclopropyl)methanamine]	–	–	244 nM	(24%) % 5-HT	–
NCC1CC1c1cc(Cl)ccc1OCCCF (single isomer, unassigned; (+)) [(+)-Example 20, (+)-(2-(5-Chloro-2-(3-fluoropropoxy)phenyl)cyclopropyl)methanamine]	4910 nM	(22%) % 5-HT	206 nM	(60%) % 5-HT	–
C=CCOc1ccc(Cl)cc1C1CC1CN (single isomer, unassigned; (+)) [(+)-Example 23, (+)-(2-(2-(Allyloxy)-5-chlorophenyl)cyclopropyl)methanamine]	2210 nM	(32%) % 5-HT	60 nM	(80%) % 5-HT	–
NCC1CC1c1c(OCCF)ccc(Cl)c1F (single isomer, unassigned; (+)) [(+)-Example 31, (+)-(2-(3-Chloro-2-fluoro-6-(2-fluoroethoxy)phenyl)cyclopropyl)methanamine]	–	(15%) % 5-HT	71 nM	(86%) % 5-HT	–
C=CCOc1cc(Cl)c(Cl)cc1C1CC1CN (single isomer, unassigned; (+)) [(+)-Example 35, (+)-(2-(2-(Allyloxy)-4,5-dichlorophenyl)cyclopropyl)methanamine]	–	–	61 nM	(88%) % 5-HT	–
C=CCOc1ccc(Cl)c(Cl)c1C1CC1CN (single isomer, unassigned; (+)) [(+)-Example 39]	–	–	–	(70%) % 5-HT	165 nM
NCC1CC1c1cc(F)c(F)cc1OCCF (single isomer, unassigned; (+)) [(+)-Example 42, (+)-(2-(4,5-Difluoro-2-(2-fluoroethoxy)phenyl)cyclopropyl)methanamine]	–	–	7.3 nM	(95%) % 5-HT	–
NCC1CC1c1c(OCCF)ccc(F)c1F (single isomer, unassigned; (+)) [(+)-Example 47, (+)-(2-(2,3-Difluoro-6-(2-fluoroethoxy)phenyl)cyclopropyl)methanamine]	–	–	25 nM	(95%) % 5-HT	–
C=CCOc1ccc(F)c(F)c1C1CC1CN (single isomer, unassigned; (+)) [(+)-Example 49, (+)-(2-(6-(Allyloxy)-2,3-difluorophenyl)cyclopropyl)methanamine]	3340 nM	(35%) % 5-HT	36 nM	(100%) % 5-HT	–
NCC1CC1c1c(OCCF)ccc(F)c1Cl (single isomer, unassigned; (+)) [(+)-Example 52, (+)-(2-(2-Chloro-3-fluoro-6-(2-fluoroethoxy)phenyl)cyclopropyl)methanamine]	–	–	49 nM	(86%) % 5-HT	–
C=CCOc1ccc(F)c(Cl)c1C1CC1CN (single isomer, unassigned; (+)) [(+)-Example 53, (+)-(2-(6-(Allyloxy)-2-chloro-3-fluorophenyl)cyclopropyl)methanamine]	–	–	96 nM	(92% 5-HT	–
NCC1CC1c1cc(Cl)c(F)cc1OCCF (single isomer, unassigned; (-)) [(−)-Example 4, (−)-(2-(5-Chloro-4-fluoro-2-(2-fluoroethoxy)phenyl)cyclopropyl)methanamine]	2520 nM	(26%) % 5-HT	776 nM	(70%) % 5-HT	–
C=CCOc1cc(F)c(Cl)cc1C1CC1CN (single isomer, unassigned; (-)) [(−)-Example 5, (−)-(2-(2-(Allyloxy)-5-chloro-4-fluorophenyl)cyclopropyl)methanamine]	1960 nM	(22%) % 5-HT	308 nM	(77%) % 5-HT	–
C#CCOc1cc(F)c(Cl)cc1C1CC1CN (single isomer, unassigned; (-)) [(−)-Example 6, (−)-(2-(5-Chloro-4-fluoro-2-(prop-2-yn-1-yloxy)phenyl)cyclopropyl)methanamine]	4210 nM	(33%) % 5-HT	117 nM	(92%) % 5-HT	–
CCCOc1ccc(F)cc1C1CC1CN (single isomer, unassigned; (-)) [(−)-Example 7, (−)-(2-(5-Fluoro-2-propoxyphenyl)cyclopropyl)methanamine]	735 nM	(11%) % 5-HT	296 nM	(80%) % 5-HT	–
C=C(F)COc1ccc(F)cc1C1CC1CN (single isomer, unassigned; (-)) [(−)-Example 9, (−)-(2-(5-Fluoro-2-((2-fluoroallyl)oxy)phenyl)cyclopropyl)methanamine]	–	–	985 nM	(62%) % 5-HT	–
CCOc1ccc(Cl)cc1C1CC1CN (single isomer, unassigned; (-)) [(−)-Example 11, (−)-(2-(5-Chloro-2-ethoxyphenyl)cyclopropyl)methanamine]	2310 nM	(26%) % 5-HT	646 nM	(72%) % 5-HT	–
CCCOc1ccc(Cl)cc1C1CC1CN (single isomer, unassigned; (-)) [(−)-Example 12, (−)-(2-(5-Chloro-2-propoxyphenyl)cyclopropyl)methanamine]	3000 nM	(21%) % 5-HT	1230 nM	(31%) % 5-HT	–
CC(C)Oc1ccc(Cl)cc1C1CC1CN (single isomer, unassigned; (-)) [(−)-Example 14, (−)-(2-(5-Chloro-2-isopropoxyphenyl)cyclopropyl)methanamine]	5660 nM	(19%) % 5-HT	2480 nM	(37%) % 5-HT	–
COCCOc1ccc(Cl)cc1C1CC1CN (single isomer, unassigned; (-)) [(−)-Example 17, (−)-(2-(5-Chloro-2-(2-methoxyethoxy)phenyl)cyclopropyl)methanamine]	5300 nM	(32%) % 5-HT	667 nM	(45%) % 5-HT	–
CSCCOc1ccc(Cl)cc1C1CC1CN (single isomer, unassigned; (-)) [(−)-Example 18, (−)-(2-(5-Chloro-2-(2-(methylthio)ethoxy)phenyl)cyclopropyl)methanamine]	–	–	1760 nM	(11%) % 5-HT	–
C=C(C)COc1ccc(Cl)cc1C1CC1CN (single isomer, unassigned; (-)) [(−)-Example 24, (−)-(2-(5-Chloro-2-((2-methylallyl)oxy)phenyl)cyclopropyl)methanamine]	6090 nM	(39%) % 5-HT	–	–	–
C=C(F)COc1ccc(Cl)cc1C1CC1CN (single isomer, unassigned; (-)) [(−)-Example 25, (−)-(2-(5-Chloro-2-((2-fluoroallyl)oxy)phenyl)cyclopropyl)methanamine]	6880 nM	(33%) % 5-HT	–	–	–
NCC1CC1c1cc(F)c(F)cc1OCCF (single isomer, unassigned; (-)) [(−)-Example 42, (−)-(2-(4,5-Difluoro-2-(2-fluoroethoxy)phenyl)cyclopropyl)methanamine]	–	–	772 nM	(73%) % 5-HT	–
CCCOc1ccc(F)c(F)c1C1CC1CN (single isomer, unassigned; (-)) [(−)-Example 48, (−)-(2-(2,3-Difluoro-6-propoxyphenyl)cyclopropyl)methanamine]	–	–	357 nM	(68%) % 5-HT	–
